Measurements published in US11331299B2, “Medicinal use of serrulatane diterpenes” (The University of Sydney, priority 2016, dated 2022).
pEC50, pIC50: −log10 of the molar value. Read-outs that look alike come from different tables or passages of the source.

Test system: 280 human cancer cell lines
Assay: OncoPanel cell proliferation assay (10-day)
Format: cell-based
Conditions: Homo sapiens; for GI50: read-out: Cell Count GI50; for pIC50: read-out: Cell Count IC50; for pEC50: read-out: Cell Count EC50
[1] = C-4-II, C-4 II, Female GU - Cervix
[2] = C-33-A, C-33A, Female GU - Cervix
[3] = CAL-62, CAL-62, Endocrine - Thyroid
[4] = CCF-STTG1, CCF-STTG1, CNS - Glioma
[5] = CGTH-W-1, CGTH-W-1, Endocrine - Thyroid
[6] = CHP-212, CHP-212, CNS - Neuroblastoma
[7] = COLO-320-HSR, Colo 320 HSR, Colon
[8] = COLO-829, COLO 829, Skin (Melanoma)
[9] = COR-L105, COR-L105, Lung - NSCLC
[10] = Ca-Ski, Ca Ski, Female GU - Ovary

CC(C)=CCC[C@H](C)[C@@H]1CC[C@@H](C)c2c1cc(C)c(O)c2O [Compound 4, 7,8-dihydroxyserrulat-14-ene]
GI50 (BT-474, BT474, Breast): 25 µM | pIC50 (BT-474, BT474, Breast): 4.59 | pEC50 (BT-549, BT-549, Breast): 4.82 | GI50 (BT-549, BT-549, Breast): 15.1 µM | pIC50 (BT-549, BT-549, Breast): 4.82 | pEC50 (BV-173, BV-173, Leukemia): 5.45 | GI50 (BV-173, BV-173, Leukemia): 3.55 µM | pIC50 (BV-173, BV-173, Leukemia): 5.45 | pEC50 (BXPC-3, BxPC-3, Pancreas): 4.87 | GI50 (BXPC-3, BxPC-3, Pancreas): 13.4 µM | pIC50 (BXPC-3, BxPC-3, Pancreas): 4.87 | pEC50 (BeWo, Placenta): 4.81 | GI50 (BeWo, Placenta): 15.5 µM | pIC50 (BeWo, Placenta): 4.81 | pEC50 (C32, Skin (Melanoma)): 5.11 | GI50 (C32, Skin (Melanoma)): 6.37 µM | pIC50 (C32, Skin (Melanoma)): 5.11 | pEC50 [1]: 4.90 | GI50 [1]: 12.5 µM | pIC50 [1]: 4.90 | pEC50 [2]: 5.02 | GI50 [2]: 9.42 µM | pIC50 [2]: 5.02 | pEC50 (CA46, CA46, Lymphoma): 5.39 | GI50 (CA46, CA46, Lymphoma): 4.06 µM | pIC50 (CA46, CA46, Lymphoma): 5.39 | pEC50 (CAKI-1, Caki-1, Kidney): 4.84 | GI50 (CAKI-1, Caki-1, Kidney): 14.1 µM | pIC50 (CAKI-1, Caki-1, Kidney): 4.84 | pEC50 (CAKI-2, Caki-2, Kidney): 4.88 | GI50 (CAKI-2, Caki-2, Kidney): 13.5 µM | pIC50 (CAKI-2, Caki-2, Kidney): 4.87 | pEC50 (CAL-27, Cal 27, Head and Neck): 4.91 | GI50 (CAL-27, Cal 27, Head and Neck): 12.2 µM | pIC50 (CAL-27, Cal 27, Head and Neck): 4.91 | pEC50 [3]: 5.27 | GI50 [3]: 5.36 µM | pIC50 [3]: 5.27 | pEC50 (CAMA-1, CAMA-1, Breast): < 4.52 | GI50 (CAMA-1, CAMA-1, Breast): > 30 µM | pIC50 (CAMA-1, CAMA-1, Breast): < 4.52 | pEC50 (CAPAN-1, Capan-1, Pancreas): < 4.52 | GI50 (CAPAN-1, Capan-1, Pancreas): > 30 µM | pIC50 (CAPAN-1, Capan-1, Pancreas): < 4.52 | pEC50 [4]: 4.71 | GI50 [4]: 16 µM | pIC50 [4]: 4.71 | pEC50 (CCRF-CEM, CCRFCEM, Leukemia): 5.31 | GI50 (CCRF-CEM, CCRFCEM, Leukemia): 4.91 µM | pIC50 (CCRF-CEM, CCRFCEM, Leukemia): 5.31 | pEC50 (CEM/C1, CEM-C1, Leukemia): 5.83 | GI50 (CEM/C1, CEM-C1, Leukemia): 1.47 µM | pIC50 (CEM/C1, CEM-C1, Leukemia): 5.83 | pEC50 (CFPAC-1, CFPAC-1, Pancreas): 4.60 | GI50 (CFPAC-1, CFPAC-1, Pancreas): 25.1 µM | pIC50 (CFPAC-1, CFPAC-1, Pancreas): 4.60 | pEC50 [5]: 5.46 | GI50 [5]: 3.47 µM | pIC50 [5]: 5.46 | pEC50 (CHL-1, CHL-1, Skin (Melanoma)): 4.92 | GI50 (CHL-1, CHL-1, Skin (Melanoma)): 11.8 µM | pIC50 (CHL-1, CHL-1, Skin (Melanoma)): 4.92 | pEC50 [6]: 5.01 | GI50 [6]: 9.74 µM | pIC50 [6]: 5.01 | pEC50 (CML-T1, CML-T1, Leukemia): 5.41 | GI50 (CML-T1, CML-T1, Leukemia): 3.93 µM | pIC50 (CML-T1, CML-T1, Leukemia): 5.41 | pEC50 (COLO 201, Colo 201, Colon): 5.39 | GI50 (COLO 201, Colo 201, Colon): 4.04 µM | pIC50 (COLO 201, Colo 201, Colon): 5.39 | pEC50 (COLO 205, Colo 205, Colon): 4.92 | GI50 (COLO 205, Colo 205, Colon): 11.9 µM | pIC50 (COLO 205, Colo 205, Colon): 4.92 | pEC50 (COLO 320DM, Colon): 5.10 | GI50 (COLO 320DM, Colon): 7.87 µM | pIC50 (COLO 320DM, Colon): 5.10 | pEC50 [7]: 5.29 | GI50 [7]: 5.15 µM | pIC50 [7]: 5.29 | pEC50 [8]: 5.43 | GI50 [8]: 3.29 µM | pIC50 [8]: 5.43 | pEC50 (COR-L23, COR-L23, Lung - NSCLC): 4.88 | GI50 (COR-L23, COR-L23, Lung - NSCLC): 13.2 µM | pIC50 (COR-L23, COR-L23, Lung - NSCLC): 4.88 | pEC50 [9]: 5.06 | GI50 [9]: 8.47 µM | pIC50 [9]: 5.06 | pEC50 (CRO-AP2, CRO-AP2, Lymphoma): 5.00 | GI50 (CRO-AP2, CRO-AP2, Lymphoma): 9.88 µM | pIC50 (CRO-AP2, CRO-AP2, Lymphoma): 5.00 | pEC50 [10]: 4.75 | GI50 [10]: 17.6 µM | pIC50 [10]: 4.75 | pEC50 (Calu-1, Calu1, Lung - NSCLC): 5.05 | GI50 (Calu-1, Calu1, Lung - NSCLC): 8.77 µM | pIC50 (Calu-1, Calu1, Lung - NSCLC): 5.05 | pEC50 (Calu-6, Calu6, Lung - NSCLC): 4.60 | GI50 (Calu-6, Calu6, Lung - NSCLC): 24.5 µM | pIC50 (Calu-6, Calu6, Lung - NSCLC): 4.60
